The values below come from patent publication US20020068838A1, “AROMATIC AMIDES, THEIR PREPARATION PROCESS AND THEIR USE AS PESTICIDES” (priority 1997, published 2002).

Holding throughout (type): in vivo
The subject of one assay is Heliothis virescens. The assay is described as follows: Study on Heliothis virescens (artificial medium surface treatment). The settings on record: starting from a dose of 300 ppm; neonate larva; after seven days; 25 C. How it is done: The product was dissolved at the desired concentration in an acetone-water mixture (50-50). 50 μl of solution were deposited on the surface of a small well containing approximately 2 grams of plant-based artificial medium. One neonate larva of Heliothis virescens was then introduced into each well, which was sealed with a sheet of cellophane. The tests were kept at a temperature of 25 C., with a photoperiod of twelve hours. The mortality of the larvae was checked after seven days.

The next assay deals with Spodoptera littoralis. Description: Study on Spodoptera littoralis (haricot leaf dip test). The settings on record: starting from a dose of 300 ppm, after seven days, 25 C. How it is done:
The product was dissolved at the desired concentration in an acetone-water mixture (50-50). Haricot leaves (Phaseolus vulgaris, var. […]) were immersed for five seconds in the solution, then left to dry in a Petri dish for one hour. Ten larvae of Spodoptera littoralis were then added to each dish. These were kept at a temperature of 25 C., with a photoperiod of twelve hours. After seven days, the mortality of the larvae was checked and the foliar surface consumed was evaluated.

The next assay concerns Phaedon cochleariae. The assay is described as follows: Study on Phaedon cochleariae (foliar disk dip test, Chinese cabbage). The settings on record: starting from a dose of 300 ppm; adults; after seven days; 25 C. How it is done:
The product was dissolved at the desired concentration in an acetone-water mixture (50-50). Foliar disks of Chinese cabbage (Brassica pekinensis) were immersed for five seconds in the solution, then left to dry for one hour. Ten adults (a mixture of males and females) were added into a Petri dish containing a foliar disk each. These were kept at a temperature of 25 C., with a photoperiod of twelve hours. After seven days, the mortality of the insects was checked and the foliar surface consumed was evaluated.

Assay [1] relates to Leptinotarsa decemlineata. Description: Study on Leptinotarsa decemlineata (aubergine foliar disk dip test). The settings on record: starting from a dose of 300 ppm; larvae (3rd stage); after four days; 25 C. How it is done: The product was dissolved at the desired concentration in an acetone-water mixture (50-50). Foliar disks of aubergine were immersed in the solution, then left to dry for one hour. Ten larvae (3rd stage) were added into a Petri dish each containing a foliar disk. These were kept at a temperature of 25 C. After four days, the mortality of the insects was checked.

Turning to `Cc1ccccc1NC(=O)c1ccc(CC=Cc2ccc(Cl)c(Cl)c2)cc1` [Example 7, 4-[3-(3,4-dichlorophenyl)-2-propenyl]-N-(2-methylphenyl)-benzamide], the “activity (mortality of the larvae)” value with Heliothis virescens is recorded as “good activity”. In addition, the “activity (mortality of the larvae and foliar surface consumed)” value with Spodoptera littoralis is listed as “good activity”.

Take `Cc1ccccc1NC(=O)c1ccc(CC=C(Cl)c2ccc(Cl)c(Cl)c2)cc1` [Example 6, 4-[3-chloro-3-(3,4-dichlorophenyl)-2-propenyl]-N-(2-methylphenyl)-benzamide]: the “activity (mortality of the insects and foliar surface consumed)” value with Phaedon cochleariae is reported as “good activity”. In addition, the “activity (mortality of the insects)” value in assay [1] was “very interesting activity”. Moreover, in the assay with Heliothis virescens, the “activity (mortality of the larvae)” value is on record as “good activity”. In addition, in the assay on Spodoptera littoralis, the “activity (mortality of the larvae and foliar surface consumed)” value is “good activity”.

For the molecule `CC(=CCc1ccc(C(=O)Nc2ccccc2C)cc1)c1ccc(Cl)c(Cl)c1` [Example 5, 4-[3-(3,4-dichlorophenyl)-2-butenyl]-N-(2-methylphenyl)-benzamide], in the assay with Heliothis virescens, the “activity (mortality of the larvae)” value is “good activity”. Further, in the assay on Spodoptera littoralis, the “activity (mortality of the larvae and foliar surface consumed)” value was “good activity”.

As for `Cc1ccccc1NC(=O)c1ccc(CC(F)=Cc2ccc(Cl)c(Cl)c2)cc1` [Example 2], in the assay on Heliothis virescens, the “activity (mortality of the larvae)” value is listed as “good activity”. Moreover, the “activity (mortality of the larvae and foliar surface consumed)” value in the assay with Spodoptera littoralis is listed as “good activity”.

As to `Cc1ccccc1NC(=O)c1ccc(CC(F)Cc2ccc(Cl)c(Cl)c2)cc1` (stereo not drawn) [Example 1, 4-[3-(3,4-dichlorophenyl)-2-fluoropropyl]-N-(2-methylphenyl)-benzamide], in the assay with Heliothis virescens, the “activity (mortality of the larvae)” value is given as “good activity”. In addition, in the assay on Spodoptera littoralis, the “activity (mortality of the larvae and foliar surface consumed)” value is “good activity”.
